Here are results for 5 compounds from patent US5684005A, “Pharmacologically active CNS compounds” (Glaxo Wellcome Inc., priority 1988, dated 1997).

Experiment [1] in a line: Duration of action / clearance from central nervous system. As to conditions: in words.
For experiment [2], the system named is release of glutamate. As to conditions: in words, literature; cited from earlier work.
Experiment [3] relates to release of aspartate. As to conditions: in words, literature; cited from earlier work.

The structures appear in SMILES notation.

Take `CN1CCN(c2nc(N)c(-c3cc(Cl)cc(Cl)c3Cl)c(C(F)(F)F)n2)CC1` [Example 1, 4-Amino-2-(4-methylpiperazin-1-yl)-5-(2,3,5-trichlorophenyl)-6-trifluoromethylpyrimidine]: the duration of action result in experiment [1] is “long acting”.

With `COCc1nc(N)nc(N)c1-c1cc(Cl)cc(Cl)c1Cl` [Example 2, 2,4-Diamino-5-(2,3,5-trichlorophenyl)-6-methoxymethyl pyrimidine], the duration of action entry in experiment [1] is given as “short acting”.

With `CN1CCN(c2ncc(-c3cc(Cl)cc(Cl)c3Cl)c(N)n2)CC1.CS(=O)(=O)O` [Example 3, 4-Amino-2-(4-methylpiperazin-1-yl)-5-(2,3,5-trichlorophenyl) pyrimidine mesylate], the duration of action result in experiment [1] is given as “long acting”.

As for `Nc1nc(N)c(-c2cc(Cl)cc(Cl)c2Cl)c(C(F)(F)F)n1` [Example 4, 2,4-Diamino-5-(2,3,5-trichlorophenyl)-6-trifluoromethyl pyrimidine], the duration of action entry in experiment [1] is “long acting”.

As for `Nc1nnc(-c2cccc(Cl)c2Cl)c(N)n1` [lamotrigine, 3,5-diamino-6-(2,3-dichlorophenyl)-1,2,4-triazine], in experiment [2], the “inhibition of glutamate release” value is “shown to inhibit the release”. In addition, the “inhibition of aspartate release” value in experiment [3] was “shown to inhibit the release”.
